Here are results for three compounds from patent US5330992A, “1-cyclopropyl-4-pyridyl-quinolinones” (priority 1992, dated 1994).

The test system of series [1] is P388 murine leukemia cells. The experiment in a line: Malignant cell cytotoxicity, continuous 48-hour exposure (Coulter Counter). Format: cell-based. The settings on record: Mus musculus, read-out: IC50 P388 cont. exp. Here is the method:
Examples of compound I having Topo II activity were tested for malignant cell cytotoxicity. In vitro cytotoxicity was assayed by determining cell survival following exposure of P388 murine leukemia cells to a range of test compound concentrations. Cytotoxicity was quantitated following either a one-hour exposure or continuous exposure of P388 cells to test compound.
Cytotoxicity following a one-hour exposure of cells to drug was assayed by quantitating clonogenic cell survival according to a published procedure [Freshney, R. L. (1987) Culture of Animal Cells. A Manual of Basic Technique. Wiley-Liss Inc., New York, N.Y., pp. 140-144]. Briefly, following drug exposure cells were plated in soft agar and incubated (37°, 5% CO2) for 7-10 days during which time viable cells form visible colonies. Cytotoxicity following continuous exposure of cells to test compound was assayed by quantitating total P388 cells on a Coultier Counter following a 48-hour co-incubation of test compound with cells. P388 cells were maintained in log phase throughout the duration of cytotoxicity assays.
The percentage of cells surviving relative to an untreated control was graphed as a function of increasing drug concentration.

The test system of series [2] is pancreatic ductal adenocarcinoma No. 03 (Panc 03). Description: In vivo antitumor assay, Panc03(sc). Details: species or system mouse. From the text: (§1) Mice: Inbred: C3H/He and NCR-nu; and Hybrids: B6D2Fl (C57BL/6 females X DBA/2 males, CD2Fl (Balb/c females X DBS/2 males) and B6x C3fl (C57BL/6 x C3H) were bred at Wayne State University from strained obtained from the Frederick Cancer Research Facility, Frederick, Md. or purchased from commercial suppliers.
(§2) Tumors: Murine Tumor: P388 and an adriamycin-resistant (ADR) subline P388/ADR leukemia and the following transplantable solid tumors of mice were used for in Vivo testing: B16 melanoma (B16), pancreatic ductal adenocarcinoma No. 03 (Panc 03), colon adenocarcinoma No. 38 (colo 38), mammary ductal adenocarcinoma No. 16/C (Mam16) and an adriamycin-resistantsubline Mam16C/ADR. Human tumor: A single human tumor, mammary carcinoma MX-1 (MX1) was used for in vivo testing. All tumors are in the Developmental Therapeutics Program frozen tumor respository, maintained by the Biological Testing Branch, Frederick Md. Each has a detailed description, code identification number, and list of references at the National Tumor Repository. Murine tumors were maintained in the mouse strain of origin and were transplanted in the appropriate F1 hydrid (or the strain of origin) for therapy trials. Human mammary carcinoma MX-1 MX1) was maintained as a subcutaneous implant in either athymic Swiss (Cr: NIH(S)-nu) or athymic random bred (NCR-nu) mice and transplanted in NCR-nu for therapy trials.
Chemotherapy: For pancreatic ductal adenocarcinoma No. 3, colon adenocarcinoma No. 38 (colo38), lung carcinoma No. 12 (LC12) and both adriamycin-sensitive (RP) and -resistant ADR) mammary ductal adenocarcinoma No. 16 (Mam16) tumors, the following methods were used to help ensure a more uniform tumor burden per mouse (thus reducing the requirement for greater numbers of mice per group), bilateral tumor implants were used. The animals necessary to begin an experiment were pooled, implanted bilaterally s.c. on day zero with 30-60-mg tumor fragments using a 12-gauge trocar, and again pooled before randomization to the various treatment and control groups. Chemotherapy was started within three days after tumor implantation while the number of cells per mouse was relatively small (1×10^7 […]).
(§3) Quantitative end points used assess antitumor activity included % Increased Life Span (% ILS), Tumor Cell Kill (Log10 kill), and Tumor Growth Inhibition (T/C). Long Term Survivors (45 or 60 day) were excluded from calculations of % ILS and Tumor Cell Kill.
The log10 cell kill was calculated from the following formula: [formula] where T-C is the tumor difference in the median day of death between the treated (T) and the control (C) groups and Td is the tumor doubling time (in days), the latter estimated from the best fit straight line from a log-linear growth plot of the control-group tumors in exponential growth. The conversion of the T-C values to log10 cell kill is possible because the Td for tumors regrowing post-treatment approximated the Td values of the tumors in untreated control mice.
Tumors were measured with a caliper once or twice weekly (as needed) until either tumors exceeded 1600 mg or cure was assured. Tumor weights were estimated from two-dimensional measurements: Tumor Weight (mg)=(a×b^2) / 2, where a and b are the tumor length and width (nun) respectively. Measurements were carried out simultaneously in both treatment and control groups. When the control group tumors reached approximately 750-1500 mg in size (median of group), the median tumor weight of each group was determined (including zeros). The T/C value in percent is an indiation of antitumor effectiveness. The % T/C was calculated from the following formula for solid murine tumor models: [formula] where T and C are median tumor weights of the treatment and control groups, respectively. A T/C equal to or less than 42% is considered significant antitumor activity. […]

Series [3] can be described thus: In vivo antitumor assay, MX1(src). On the set-up: species or system human tumor in athymic NCR-nu mice. The conditions noted are these: mouse, in vivo, drug route ip, qd 1,5,9.
From the text: as §1, §2
(§4) For P388 and P388/ADR leukemia studies the tumor cells were implanted either IP or intravenously (IV) on day zero and treatment was started on day one. For B16 melanoma (B16) studies, the tumor cells were implanted IP on day zero and treatment was started on day one. Tirered controls were also included to facilitate the calculation of tumor cell kill. For mammary carcinoma MX-1 studies, tumors were implanted with 1) subcutaneously (sc) (14-mg fragment of s.c. donor tumor) in the axillary region or 2) under the subrenal capsule (src) (10×10×10 ocular micrometer unit fragment of s.c. donor tumor). Treatment started on the day after subrenal capsule tumor implant or when the subcutaneous tumor implant had reached 100-700 mg.
as §3
(§5) Tumors were measured with a caliper once or twice weekly (as needed) until either tumors exceeded 1600 mg or cure was assured. Tumor weights were estimated from two-dimensional measurements: Tumor Weight (mg)=(a×b^2) / 2, where a and b are the tumor length and width (nun) respectively. Measurements were carried out simultaneously in both treatment and control groups. When the control group tumors reached approximately 750-1500 mg in size (median of group), the median tumor weight of each group was determined (including zeros). The T/C value in percent is an indiation of antitumor effectiveness. The % T/C was calculated from the following formula for solid murine tumor models: [formula] where T and C are median tumor weights of the treatment and control groups, respectively. A T/C equal to or less than 42% is considered significant antitumor activity. A T/C value <10% is indicative of a high degree of antitumor activity and is the level used by National Cancer Institute to justify further development if other requirements are met (termed DN-2 level activity). By convention the T/C value for the mammary carcinoma MX-1 models is calculated by the parameter of change in tumor weight. The % T/C was calculated from the following formula for MX-1 models [formula] where ΔT and ΔC are the change in mean tumor weight of the test and control groups, respectively, and T (initial) is the initial mean tumor weight of the test group. […] A reproducible % T/C ≤10 is considered significant activity.

Series [4] has as its system human mammary carcinoma MX-1 (MX1). Description: In vivo antitumor assay, MX1(src). Details: species or system human tumor in athymic NCR-nu mice. The settings on record: drug route ip, qd 1,5,9, change in mean tumor weight.
From the text: as §1, §2, §4, §3, §5

[5] abbreviates: drug route iv, Ex 26 qd 4-11, Ex 30 qd 3-11, Ex 33 qd 3-4,7,10.

As a reminder, the IC50 is the midpoint of a concentration-inhibition curve. Turning to `Cc1cc(-c2c(F)cc3c(=O)c(Cc4ccc(O)cc4O)cn(C4CC4)c3c2F)cc(C)n1` [Example 33], in series [1], the IC50 came to 61 nM. The T/C % in series [2] (setting [5]) came to 73%; in series [4], 8%. In series [3], this compound gave an MTD of 19 mg/kg.

Take `Cc1cc(-c2c(F)cc3c(=O)c(Cc4c(O)cccc4O)cn(C4CC4)c3c2F)cc(C)n1` [Example 26, 1-Cyclopropyl-6,8-difluoro-7-[2,6-dimethyl-4-pyridinyl]-3-[2,6-dihydroxyphenylmethyl]-1,4-dihydroquinoline-4-one]: the IC50 in series [1] was found to be 55 nM. Moreover, the T/C % in series [2] (setting [5]) stood at 0%; in series [2] (drug route sc, Ex 3 qd 3-12, Ex 26 qd 3,5-7 bid 4), 19%; in series [4], 20%. Also, the “LOG KILL” value in series [2] (drug route iv, qd 4-11, log10 cell kill) is reported as 1.7. Further, in series [3], the MTD was 8.1 mg/kg.

Take `Cc1cc(-c2c(F)cc3c(=O)c(Cc4ccccc4O)cn(C4CC4)c3c2F)cc(C)n1` [Example 30]: the IC50 in series [1] was determined as 290 nM. The T/C % in series [2] (setting [5]) was 5%; in series [4] it was 6%. In addition, in series [3], the MTD amounted to 304 mg/kg.
